For this assay, the target named is T1, 3-phosphoinositide-dependent protein kinase 1 (Homo sapiens, UniProt O15530).
T1 sequence (O15530 whole entry): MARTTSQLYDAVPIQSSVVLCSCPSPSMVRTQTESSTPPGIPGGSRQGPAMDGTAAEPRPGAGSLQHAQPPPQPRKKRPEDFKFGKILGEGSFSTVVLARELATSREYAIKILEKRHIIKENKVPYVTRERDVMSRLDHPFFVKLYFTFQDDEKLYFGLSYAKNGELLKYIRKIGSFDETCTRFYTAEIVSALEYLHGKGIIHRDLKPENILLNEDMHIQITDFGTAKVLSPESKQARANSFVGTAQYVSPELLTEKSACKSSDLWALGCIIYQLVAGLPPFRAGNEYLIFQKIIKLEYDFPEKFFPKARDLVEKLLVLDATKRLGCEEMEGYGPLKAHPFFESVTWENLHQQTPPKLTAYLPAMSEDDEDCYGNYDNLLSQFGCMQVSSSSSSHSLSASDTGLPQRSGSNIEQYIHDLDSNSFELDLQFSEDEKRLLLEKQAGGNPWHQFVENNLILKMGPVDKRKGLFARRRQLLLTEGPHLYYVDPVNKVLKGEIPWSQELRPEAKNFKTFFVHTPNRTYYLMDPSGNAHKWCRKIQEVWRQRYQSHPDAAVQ
In words: Kinase Assay. The procedure:
The activity of the compounds according to the invention on the kinase PDK1 which inhibits the signal transduction pathway is determined in an in vitro kinase assay with recombinantly prepared protein.

SMILES strings stand for the structures.

As for `CN(C)C(=O)c1cnc2ccc(C#CCNC(=O)c3cncn(Cc4ccc(F)c(F)c4)c3=O)cc2n1` [US8575203, II-70], the concentration for half-maximal inhibition (IC50) (in general, the concentration that gives 50% inhibition) is 185 nM.
